Data: article PMC7024391, “Trypanocidal Activity of Flavanone Derivatives” (Molecules, 2020)
Read-outs that look alike come from different tables or passages of the source.

Assays:
[1] = test system: T. cruzi (Trypomastigote); parameters: method as in Grecco et al. [9],[10],[11],[12]; conditions: ref Grecco et al. [9],[10],[11],[12]; cited from earlier work
[2] = test system: trypomastigote form of T. cruzi; parameters: method as in Ambrozin et al.; conditions: ref Ambrozin et al.; cited from earlier work
[3] = In vitro cytotoxic test on uninfected L-929 cells (alamarBlue); format: cell-based, mouse; conditions: mouse, uninfected L-929 cells; mammalian L929 cells, 96 h, alamarBlue; ± 2.0; read-out: Cytotoxicity CC50(μM) ± 2.0
Procedure: (§1) The active compounds were tested in vitro for determination of cellular toxicity against uninfected L-929 cells using the alamarBlue® dye. The cells were exposed to compounds at increasing concentrations starting at IC50 value for T. cruzi. After 96 h of incubation with the tested compounds, the alamarBlue® was added and the absorbance at 570 and 600 nm measured after 4–6 h. The cell viability was expressed as the percentage of difference in the reduction between treated and untreated cells. IC50 values were calculated by linear interpolation, and the selectivity index (SI) was determined based on the ratio of the IC50 value in the host cell divided by the IC50 value of the parasite. Quadruplicates were run in the same plate, and the experiments were repeated at least once.

[4] = test system: L929 cells; test: as above; format: cell-based, mouse; conditions: CC50 L929 / IC50 T. cruzi
Procedure: as §1

[5] = test system: Trypanosoma cruzi (amastigotes and trypomastigotes), Tulahuen strain; test: Anti-Trypanosoma cruzi activity assay (amastigotes and trypomastigotes) in infected L929 cells, beta-galactosidase reporter; format: cell-based; conditions: Trypanosoma cruzi, 96 h incubation, ± 0.2, read-out: Trypanocide IC50(μM) ± 0.2
Procedure: Flavanone derivatives were evaluated for anti-T. cruzi activity against the intracellular forms of the parasite. Although the use of epimastigotes present in the midgut vector may be utilized for initial screening, we have instead opted for the simultaneous use of trypomastigote and intracellular amastigotes forms that are present during both acute and chronic phases of the disease. This approach is in accordance with the Drugs for Neglected Diseases Initiative guidelines (DNDi). Moreover, it also has the advantage of evaluating bioactive compounds in infected cells while at the same time monitoring their effects on both the relevant forms of the parasite in the same system. Benznidazole was used as a positive control against T. cruzi and cytotoxicity was determined in mammalian L929 cells (Table 1). The bioavailability profile of the flavanones was evaluated by applying the Lipinski rule and data related to the risk of toxicity (mutagenicity, tumorigenicity, irritability, and effects on the reproductive system) carried out through online programs “Molinspiration” and “OSIRIS property explorer” (Table 1). […] Nevertheless, this preliminary result motivated us to investigate other analogs bearing substituents in order to improve potency and selectivity. […] Moreover, the selectivity of 2d was almost 4 times greater than 2a. The importance of methoxy substituents for trypanocidal activity has been noted in other studies. […] These compounds resembled more closely the chemical structure of the trypanocidal natural product (brevifolin carboxylate) that these structures were based on. Some enhancement in the trypanocidal activity of hybrid coumarin-chalcone compounds was also noted when the methoxy groups were introduced into either the 2 or 5 positions of the benzene ring. The inclusion of a pyridine moiety in compound 2e was supported by previous reports describing the anti-T. cruzi activity of 2-pyridyl derivatives and their capacity to inhibit cruzain catalytic activity. […] No improvements in anti-T. cruzi activity were also observed for flavanones substituted at the benzoyl moiety (2g–2o and 2v–2x). […] The physicochemical drug descriptors of the molecular properties for the synthesized compounds were calculated by Molinspiration software (Table 1). The majority of the tested compounds satisfy the Lipinski rule with no violations and therefore displaying potentially good bioavailability. There were no linear correlations observed between molecular hydrophobicity and bioactivity.
The in vitro anti-T. cruzi activity was evaluated on L929 cells (mouse fibroblasts) infected with Tulahuen strain of the parasite expressing the Escherichia coli β-galactosidase as reporter gene. Briefly, for the bioassay, 4000 L929 cells were added to each well of a 96-well microtiter plate. After an overnight incubation, 40,000 trypomastigotes were added to the cells and incubated for 2 h. Then, the medium containing extracellular parasites were replaced with 200 μL of fresh medium and the plate was incubated for an additional 48 h to establish the infection. For IC50 determination, the cells were exposed to each synthesized compound at serial decreasing dilutions and the plate was incubated for 96 h. After this period, 50 μL of 500 μM chlorophenol red beta-D-galactopyranoside (CPRG) in 0.5% Nonidet P40 was added to each well, and the plate was incubated for 16–20 h, after which the absorbance at 570 nm was measured. Controls with uninfected cells, untreated infected cells, infected cells treated with Benznidazole at 3.8 μM (positive control) or DMSO 1% were used. The results were expressed as the percentage of T. cruzi growth inhibition in compound-tested cells as compared to the infected cells and untreated cells. The IC50 values were calculated by linear interpolation. Quadruplicates were run in the same plate, and the experiments were repeated at least once.

[6] = test system: T. cruzi (Trypomastigote); parameters: method as in Ganapaty et al. [8]; conditions: ref Ganapaty et al. [8]; cited from earlier work

Row | Compound | IC50 [1] [µM] | CC50 at 96 h [3] [µM] | SI (selectivity index calculated from CC50/IC50) [4] | IC50 [5] [µM] | further results
1 | COc1c(O)cc2oc(-c3ccc(O)cc3)cc(=O)c2c1O [Hispidulin] | 268 |  |  |  | 
2 | COc1ccc(-c2cc(=O)c3c(O)c(OC)c(O)cc3o2)cc1 [Pectolinaringenin] | 164 |  |  |  | 
3 | COc1ccc2c(=O)cc(-c3ccccc3)oc2c1 [7-Methoxyflavone] |  |  |  |  | IC50 [2]: 3120 µM
4 | O=c1cc(-c2ccccc2)oc2ccccc12 [Flavone] |  |  |  |  | IC50 [2]: 9520 µM
5 | COc1cc(O)c2c(c1)O[C@H](c1ccc(O)cc1)CC2=O [Sakuranetin] | 70.5 |  |  |  | 
6 | Cc1ccc(C(=O)[C@@H]2C(=O)c3ccccc3O[C@H]2c2ccc(F)cc2)cc1 (relative stereo) [Compound 2h, trans-2-(4-fluorophenyl)-3-(4-methylbenzoyl)chroman-4-one] |  | 111 | 4.9 | 22.5 | 
7 | COc1ccc(C(=O)[C@@H]2C(=O)c3ccccc3O[C@H]2c2ccccc2Cl)cc1 (relative stereo) [Compound 2o, trans-2-(2-chlorophenyl)-3-(4-methoxybenzoyl)chroman-4-one] |  | 408 | 15.4 | 26.5 | 
8 | Cc1ccc(C(=O)[C@@H]2C(=O)c3ccccc3O[C@H]2c2ccccc2Cl)cc1 (relative stereo) [Compound 2j, trans-2-(2-chlorophenyl)-3-(4-methylbenzoyl)chroman-4-one] |  | 62.5 | 1 | 63 | 
9 | COc1cc2c(cc1O)OC[C@H](c1cc3c(cc1O)OCO3)[C@H]2O [Pumilanol] |  |  |  |  | IC50 [6]: 10.1 µM
10 | O=C(c1ccccc1)[C@@H]1C(=O)c2ccccc2O[C@H]1c1ccc(OCc2ccccc2)cc1 (relative stereo) [Compound 2f, trans-3-benzoyl-2-(4-(benzyloxy)phenyl)chroman-4-one] |  | 92.1 | 12.1 | 7.6 | 
